Strand notation (5' to 3'): a small letter for the sugar, then the base; units joined by * are phosphorothioate-linked, units joined directly phosphodiester-linked; [ ] holds rarer units or linkages, { } end groups; capitals alone tell only the bases. [ms] = mesyl phosphoramidate linkage; e = 2'-O-(2-methoxyethyl) (MOE); k = constrained ethyl (cEt); [5mC] = 5-methylcytosine; d = 2'-deoxy (DNA)
How the values were obtained:
[1] = tested on: human APOE RNA; experiment: Activity in APOE C57BL/6NTac-Apoeem7250 knock-in mice, single ICV bolus, 4 weeks (Example 10); assay type: in vivo; details: single ICV bolus 300 μg, 4 weeks post treatment, normalized to mouse Ppia
Method in brief: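 Human APOE RNA, quantified by real-time RT-PCR with RTS3073 and normalized to mouse Ppia, was read in cortical brain and spinal cord 4 weeks post dosing. Dosing was a single ICV bolus of 300 μg per knock-in mouse; values are % of PBS-treated animals.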

[2] = tested on: human APOE RNA; experiment: Activity in APOE C57BL/6NTac-Apoeem7250 knock-in mice, single ICV bolus, 8 weeks (Example 11); assay type: in vivo; details: single ICV bolus 300 μg, 8 weeks post treatment, normalized to mouse Ppia
Method in brief: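 Cortical and spinal cord human APOE RNA quantified by RT-qPCR 8 weeks after a single 300 μg ICV dose in knock-in mice, Ppia-normalized. Values are percent of levels in PBS-treated animals.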

[3] = tested on: human APOE RNA; experiment: Activity in APOE C57BL/6NTac-Apoeem7250 knock-in mice, single ICV bolus, 16 weeks (Example 12); assay type: in vivo; details: single ICV bolus 300 μg, 16 weeks post treatment, normalized to mouse Ppia
Method in brief: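 A single 300 μg intracerebroventricular dose was given, with PBS-treated mice as reference; cortical and spinal cord tissue was taken 16 weeks later. RT-qPCR quantified human APOE RNA, Ppia-normalized, expressed relative to PBS animals (% control).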

[4] = tested on: human APOE RNA; experiment: Activity in APOE C57BL/6NTac-Apoeem7250 knock-in mice, single ICV bolus, 20 weeks (Example 13); assay type: in vivo; details: single ICV bolus 300 μg, 20 weeks post treatment, normalized to mouse Ppia
Method in brief: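 Cortical and spinal cord RNA was assayed by real-time RT-PCR for human APOE, normalized to mouse Ppia and reported as percent of PBS controls. Tissue was taken twenty weeks after one 300 μg intracerebroventricular bolus in APOE knock-in mice, 4 per group.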

[5] = tested on: human APOE RNA; experiment: Dose-dependent inhibition of human APOE RNA in HepG2 cells, electroporation, 50,000 cells per well, RT-PCR normalized to GAPDH (Example 4, Tables 8-10); assay type: cell-based; details: for APOE RNA (% UTC) 1,280 nM: 24-hour treatment, 1,280 nM; for APOE RNA (% UTC) 3,200 nM: 24-hour treatment, 3,200 nM; for APOE RNA (% UTC) 8,000 nM: 24-hour treatment, 8,000 nM; for APOE RNA (% UTC) 20,000 nM: 24-hour treatment, 20,000 nM
Method in brief: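 Readout is percent APOE RNA versus untreated controls, measured by RT-PCR (primer probe set RTS3073) and normalized to human GAPDH. Modified oligonucleotides were delivered by electroporation at varying doses into HepG2 cells plated at 50,000 per well.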

[6] = HepG2 cells, electroporation, 24-hour treatment, 5 nM, Table 8
[7] = HepG2 cells, electroporation, 24-hour treatment, Table 8
[8] = HepG2 cells, electroporation, 24-hour treatment, 33 nM, Table 8
[9] = HepG2 cells, electroporation, 24-hour treatment, 82 nM, Table 8
[10] = HepG2 cells, electroporation, 24-hour treatment, 205 nM, Table 8
[11] = HepG2 cells, electroporation, 24-hour treatment, 512 nM, Table 8
[12] = HepG2 cells, electroporation, Table 8
[13] = reduction of human APOE RNA, HepG2 cells, electroporation, 24-hour treatment, Table 8

| Substance | APOE RNA (% control) Cortex [1] [% control] | APOE RNA (% control) Spinal Cord [1] [% control] | APOE RNA (% control) Cortex [2] [% control] | APOE RNA (% control) Spinal Cord [2] [% control] | APOE RNA (% control) Cortex [3] [% control] | APOE RNA (% control) Spinal Cord [3] [% control] | APOE RNA (% control) Cortex [4] [% control] | APOE RNA (% control) Spinal Cord [4] [% control] | other results |
| --- | --- | --- | --- | --- | --- | --- | --- | --- | --- |
| 1785619 (k[5mC]*dT[ms]dT[ms]kG*dG[ms]kT*dG*dA[ms]dA[ms]dT*d[5mC]*dT*dT*dT*dA[ms]dT*kT*kA*dA[ms]kA) [Compound 1785619] | 41 | 41 | 40 | 27 | 40 | 41 | 58 | 59 |  |
| 1785601: modified oligonucleotide complementary to human APOE RNA (k[5mC]*kT*kT*dG[ms]dG[ms]dT[ms]dG*dA[ms]dA[ms]dT*d[5mC]*dT*dT*dT*dA[ms]dT*kT*kA*dA[ms]kA; antisense) [compound 1785601] | 33 | 40 | 28 | 211 | 39 | 21 | 43 | 31 | APOE RNA (% UTC) 5 nM [5, 6]: 111 % UTC; APOE RNA (% UTC) 13 nM [5, 7]: 115 % UTC; APOE RNA (% UTC) 33 nM [5, 8]: 101 % UTC; APOE RNA (% UTC) 82 nM [5, 9]: 75 % UTC; APOE RNA (% UTC) 205 nM [5, 10]: 63 % UTC; APOE RNA (% UTC) 512 nM [5, 11]: 36 % UTC; APOE RNA (% UTC) 1,280 nM [5, 12]: 25 % UTC; APOE RNA (% UTC) 3,200 nM [5, 12]: 15 % UTC; APOE RNA (% UTC) 8,000 nM [5, 12]: 16 % UTC; APOE RNA (% UTC) 20,000 nM [5, 12]: 10 % UTC; IC50 [5, 13]: 380 nM |
| 1785600 (k[5mC]*kT*kT*dG[ms]dG[ms]dT[ms]dG*dA*dA*dT*d[5mC]*dT[ms]dT[ms]dT[ms]dA*dT*kT*kA*dA[ms]kA; antisense) [Compound 1785600] | 46 | 51 | 36 | 26 | 39 | 30 | 60 | 33 |  |
| 1785604: modified oligonucleotide complementary to human APOE RNA (k[5mC]*dT[ms]dT[ms]kG*dG[ms]kT*dG[ms]dA[ms]dA*dT*d[5mC]*dT*dT*dT*dA*dT*kT*kA*dA[ms]kA; antisense) [compound 1785604] | 39 | 55 | 28 | 35 | 41 | 27 | 55 | 47 | APOE RNA (% UTC) 5 nM [5, 6]: 92 % UTC; APOE RNA (% UTC) 13 nM [5, 7]: 108 % UTC; APOE RNA (% UTC) 33 nM [5, 8]: 89 % UTC; APOE RNA (% UTC) 82 nM [5, 9]: 86 % UTC; APOE RNA (% UTC) 205 nM [5, 10]: 69 % UTC; APOE RNA (% UTC) 512 nM [5, 11]: 47 % UTC; APOE RNA (% UTC) 1,280 nM [5, 12]: 44 % UTC; APOE RNA (% UTC) 3,200 nM [5, 12]: 47 % UTC; APOE RNA (% UTC) 8,000 nM [5, 12]: 13 % UTC; APOE RNA (% UTC) 20,000 nM [5, 12]: 7 % UTC; IC50 [5, 13]: 870 nM |
| 1778112 (eA*e[5mC]eTeTeGkG*dT*dG[ms]dA[ms]dA*dT*d[5mC]*dT*dT*dT*dA[ms]eTeT*eA*eA; antisense) [Compound 1778112] | 46 | 49 | 49 | 23 | 63 | 25 | 67 | 25 |  |
| 1778117 (eA*e[5mC]eTeTeG*eG*dT*dG[ms]dA[ms]dA*dT*d[5mC]*dT*dT*dT*dA[ms]kT*eT*eA*eA; antisense) [Compound 1778117] | 46 | 114 | 49 | 28 | 65 | 36 | 72 | 36 |  |
| 1778126 (eA*e[5mC]eTeTkG*kG*dT*dG[ms]dA[ms]dA*dT*d[5mC]*dT*dT*dT*dA[ms]kT*eT*eA*eA; antisense) [Compound 1778126] | 41 | 72 | 23 | 20 | 37 | 22 | 52 | 35 |  |
| 1778119 (eA*e[5mC]eTeTeG*eG*dT*dG[ms]dA[ms]dA*dT*d[5mC]*dT*dT*dT*dA[ms]kTeT*eA*eA; antisense) [Compound 1778119] | 45 | 56 | 52 | 27 | 62 | 38 | 84 | 51 |  |
| 1778113 (eA*e[5mC]eTeTkG*kG*dT*dG[ms]dA[ms]dA*dT*d[5mC]*dT*dT*dT*dA[ms]eT*eT*eA*eA; antisense) [Compound 1778113] | 48 | 88 | 53 | 28 | 46 | 27 | 61 | 24 |  |
| 1766559 (eT*eTeGeGeT*dG[ms]dA[ms]dA[ms]dT*d[5mC]*dT*dT*dT[ms]dA[ms]dT*kTkAeA*eA*e[5mC]; antisense) [Compound 1766559] | 79 | 81 |  |  |  |  | 100 | 74 | APOE RNA (% UTC) ([5]; 5 nM, HepG2, electroporation, 16-hour treatment): 166 % UTC; APOE RNA (% UTC) ([5]; 33 nM, HepG2, electroporation, 16-hour treatment): 65 % UTC; APOE RNA (% UTC) ([5]; 82 nM, HepG2, electroporation, 16-hour treatment): 47 % UTC; APOE RNA (% UTC) ([5]; 205 nM, HepG2, electroporation, 16-hour treatment): 46 % UTC; APOE RNA (% UTC) ([5]; 512 nM, HepG2, electroporation, 16-hour treatment): 41 % UTC; APOE RNA (% UTC) ([5]; 1,280 nM, HepG2, electroporation, 16-hour treatment): 30 % UTC; APOE RNA (% UTC) ([5]; 3,200 nM, HepG2, electroporation, 16-hour treatment): 21 % UTC; APOE RNA (% UTC) ([5]; 8,000 nM, HepG2, electroporation, 16-hour treatment): 35 % UTC; APOE RNA (% UTC) ([5]; 20,000 nM, HepG2, electroporation, 16-hour treatment): 36 % UTC; IC50 ([5]; HepG2, electroporation, 16-hour treatment): 340 nM |
| 1785616 (k[5mC]*dT[ms]dT[ms]kG*dG[ms]kT*dG[ms]dA[ms]dA[ms]dT*d[5mC]*dT*dT*dT*dA*dT[ms]kT*kA*dA[ms]kA; antisense) [Compound 1785616] | 47 | 66 | 47 | 27 | 47 | 34 | 77 | 57 |  |
| 1778120 (eA*e[5mC]eTeTeGeG*dT*dG[ms]dA[ms]dA*dT*d[5mC]*dT*dT*dT*dA[ms]kTeT*eA*eA; antisense) [Compound 1778120] | 47 | 58 | 57 | 24 | 75 | 46 | 78 | 44 |  |
